In the supplement of paper PMC11061612:

Assays:
Assay in all cases: Bliss excess, mean over the matrix (fraction); higher = more synergy
A704 (Kidney Carcinoma) = test system: A704 (Kidney Carcinoma)
Procedure, shortened: (§1)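 Cell lines grown in DMEM/F12 or RPMI with 10% FBS were plated in 1536-well plates and held 24 hours at 37°C, 5% CO2 before 72 hours of exposure to two-drug dose matrices, with DMSO typically at 0.2%. CellTiter-Glo 2.0 luminescence gave viability, which was converted to inhibition. Vehicle wells were set to 0 and blank wells to 1. Combination Emax is the second-highest inhibition in the matrix, and Bliss excess is the observed combination effect minus the expected EA + EB − EA·EB, where EA and EB are the single-agent effects.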

EW-13 (Ewing's Sarcoma) = test system: EW-13 (Ewing's Sarcoma)
Procedure, shortened: as §1

EW-18 (Ewing's Sarcoma) = test system: EW-18 (Ewing's Sarcoma)
Procedure, shortened: as §1

[1] = test system: JHH-7 (Hepatocellular Carcinoma)
Procedure, shortened: as §1

[2] = test system: KINGS-1 (Low Grade Glioma)
Procedure, shortened: as §1

[3] = test system: KLE (Endometrial Carcinoma)
Procedure, shortened: as §1

[4] = test system: KYSE-50 (Esophageal Squamous Cell Carcinoma)
Procedure, shortened: as §1

[5] = test system: LC4-1 (B-Lymphoblastic Leukemia)
Procedure, shortened: as §1

NB7 (Neuroblastoma) = test system: NB7 (Neuroblastoma)
Procedure, shortened: as §1

[6] = test system: NCI-H1573 (Lung Adenocarcinoma)
Procedure, shortened: as §1

[7] = test system: NCI-H2405 (Lung Adenocarcinoma)
Procedure, shortened: as §1

[8] = test system: NCI-H322M (Lung Adenocarcinoma)
Procedure, shortened: as §1

[9] = test system: NCI-H513 (Other Solid Carcinomas)
Procedure, shortened: as §1

[10] = test system: NCI-N87 (Gastric Carcinoma)
Procedure, shortened: as §1

[11] = test system: OCUB-M (Breast Carcinoma)
Procedure, shortened: as §1

[12] = test system: OVISE (Ovarian Carcinoma)
Procedure, shortened: as §1

[13] = test system: PFSK-1 (Other Solid Carcinomas)
Procedure, shortened: as §1

[14] = test system: SCC-3 (B-Cell Non-Hodgkin's Lymphoma)
Procedure, shortened: as §1

[15] = test system: SCC-9 (Oral Cavity Carcinoma)
Procedure, shortened: as §1

[16] = test system: SNU-C1 (Colorectal Carcinoma)
Procedure, shortened: as §1

| Structure (SMILES) | Bliss excess (A704 (Kidney Carcinoma)) | Bliss excess (EW-13 (Ewing's Sarcoma)) | Bliss excess (EW-18 (Ewing's Sarcoma)) | Bliss excess [1] | Bliss excess [2] | Bliss excess [3] | Bliss excess [4] | Bliss excess [5] | Bliss excess (NB7 (Neuroblastoma)) | Bliss excess [6] | Bliss excess [7] | Bliss excess [8] | Bliss excess [9] | Bliss excess [10] | Bliss excess [11] | Bliss excess [12] | Bliss excess [13] | Bliss excess [14] | Bliss excess [15] | Bliss excess [16] |
| --- | --- | --- | --- | --- | --- | --- | --- | --- | --- | --- | --- | --- | --- | --- | --- | --- | --- | --- | --- | --- |
| CC1(C)CCC(CN2CCN(c3ccc(C(=O)NS(=O)(=O)c4ccc(NCC5CCOCC5)c([N+](=O)[O-])c4)c(Oc4cnc5[nH]ccc5c4)c3)CC2)=C(c2ccc(Cl)cc2)C1 [Venetoclax] + C=CCn1c(=O)c2cnc(Nc3ccc(N4CCN(C)CC4)cc3)nc2n1-c1cccc(C(C)(C)O)n1 [AZD1775] (first compound max 1 µM, partner max 1 µM) | -0.0283 | -0.0523 | -0.014 | 0.0071 | 0.0375 | -0.0043 | -0.0395 | 0.0355 | 0.0082 | -0.0513 | -0.0756 | -0.0173 | -0.0608 | 0.0552 | 0.0062 | -0.0676 | -0.0171 | -0.0024 | -0.0451 | -0.0136 |
| CC1(C)CCC(CN2CCN(c3ccc(C(=O)NS(=O)(=O)c4ccc(NCC5CCOCC5)c([N+](=O)[O-])c4)c(Oc4cnc5[nH]ccc5c4)c3)CC2)=C(c2ccc(Cl)cc2)C1 [Venetoclax] + CCN(CCO)CCCOc1ccc2c(Nc3cc(CC(=O)Nc4cccc(F)c4)[nH]n3)ncnc2c1 [AZD2811] (first compound max 1 µM, 7x7, partner max 1 µM) | -0.0365 | -0.0499 | -0.0131 | 0.0033 | -0.0652 | -0.0629 | 0.0025 | 0.0039 | 0.0098 | -0.0246 | -0.0345 | -0.0153 | -0.04 | -0.004 | -0.049 | 0.0134 | 0.0663 | 0.0418 | -0.0214 | -0.0321 |
| CC1(C)CCC(CN2CCN(c3ccc(C(=O)NS(=O)(=O)c4ccc(NCC5CCOCC5)c([N+](=O)[O-])c4)c(Oc4cnc5[nH]ccc5c4)c3)CC2)=C(c2ccc(Cl)cc2)C1 [Venetoclax] + CN(C)CCCOc1ccc(-c2ccc3ncc4c(c3c2)n(C2CCOCC2)c(=O)n4C)cn1 [AZD0156] (first compound max 1 µM, 7x7, partner max 1 µM) | -0.0717 | -0.0351 | 0.0697 | -0.032 | -0.0746 | -0.145 | -0.0399 | 0.056 | 0.0104 | -0.0249 | -0.0324 | -0.0103 | -0.0142 | -0.0763 | 0.0289 | -0.01 | 0.068 | 0.0194 | -0.0351 | -0.051 |
| CC1(C)CCC(CN2CCN(c3ccc(C(=O)NS(=O)(=O)c4ccc(NCC5CCOCC5)c([N+](=O)[O-])c4)c(Oc4cnc5[nH]ccc5c4)c3)CC2)=C(c2ccc(Cl)cc2)C1 [Venetoclax] + COc1cc(Nc2ncc3c(n2)-c2ccc(Cl)cc2C(c2c(F)cccc2OC)=NC3)ccc1C(=O)O [Alisertib] (first compound max 1 µM, 7x7, partner max 10 µM) | -0.0913 | 0.0517 | 0.0421 | -0.0134 | -0.0049 | -0.0709 | -0.0101 | 0.0661 | -0.0193 | -0.0266 | -0.0251 | -0.0612 | -0.0137 | -0.0675 | 0.111 | -0.0523 | 0.0652 | 0.0308 | -0.0571 | -0.0323 |
| CC1(C)CCC(CN2CCN(c3ccc(C(=O)NS(=O)(=O)c4ccc(NCC5CCOCC5)c([N+](=O)[O-])c4)c(Oc4cnc5[nH]ccc5c4)c3)CC2)=C(c2ccc(Cl)cc2)C1 [Venetoclax] + C[C@@H]1COCCN1C2=NC(=NC(=C2)C3(CC3)[S@](=N)(=O)C)C4=C5C=CNC5=NC=C4 [AZD6738] (first compound max 1 µM, 7x7, partner max 10 µM) | -0.0758 | 0.0008 | -0.0293 | -0.0318 | -0.0432 | -0.0538 | -0.0492 | 0.0467 | -0.0342 | -0.0313 | -0.06 | -0.0433 | -0.0111 | -0.0232 | -0.0107 | -0.0658 | 0.0119 | 0.013 | -0.0433 | -0.124 |
| CC1(C)CCC(CN2CCN(c3ccc(C(=O)NS(=O)(=O)c4ccc(NCC5CCOCC5)c([N+](=O)[O-])c4)c(Oc4cnc5[nH]ccc5c4)c3)CC2)=C(c2ccc(Cl)cc2)C1 [Venetoclax] + C[C@@H](Nc1cc(F)cc(F)c1)c1cc(C(=O)N(C)C)cc2c(=O)cc(N3CCOCC3)oc12 [AZD8186] (first compound max 1 µM, 7x7, partner max 3 µM) | -0.0162 | 0.0349 | 0.0781 | -0.0516 | 0.0081 | 0.0002 | -0.0295 | 0.0967 | -0.0235 | -0.0247 | -0.0396 | -0.0526 | -0.0586 | -0.111 | -0.0082 | -0.0296 | 0.0015 | 0.0263 | -0.0222 | -0.0749 |
| CC1(C)CCC(CN2CCN(c3ccc(C(=O)NS(=O)(=O)c4ccc(NCC5CCOCC5)c([N+](=O)[O-])c4)c(Oc4cnc5[nH]ccc5c4)c3)CC2)=C(c2ccc(Cl)cc2)C1 [Venetoclax] + Cc1cc2ncnn2cc1Nc1ncc2c(n1)n(C1CCOCC1)c(=O)n2C [AZD7648] (first compound max 1 µM, 7x7, partner max 10 µM) | -0.0215 | -0.0417 | 0.0188 | -0.0446 | -0.0474 | -0.0432 | 0.0065 | 0.0187 | -0.018 | -0.0242 | -0.0492 | -0.0397 | -0.0321 | -0.0609 | -0.0149 | -0.0464 | 0.0904 | -0.0016 | -0.0211 | -0.0259 |
| CC1(C)CCC(CN2CCN(c3ccc(C(=O)NS(=O)(=O)c4ccc(NCC5CCOCC5)c([N+](=O)[O-])c4)c(Oc4cnc5[nH]ccc5c4)c3)CC2)=C(c2ccc(Cl)cc2)C1 [Venetoclax] + Cn1cnc2c(F)c(Nc3ccc(Br)cc3Cl)c(C(=O)NOCCO)cc21 [Selumetinib] (first compound max 1 µM, 7x7, partner max 3 µM) | -0.0299 | -0.0378 | -0.104 | -0.0442 | -0.0469 | -0.0704 | -0.0104 | 0.0678 | -0.0252 | -0.0431 | -0.0618 | -0.0124 | -0.0415 | -0.065 | -0.0137 | -0.0678 | -0.0092 | 0.028 | -0.0242 | -0.053 |
